Assay results from the supplement of paper PMC10307832.

Tests used:
Test in all cases: relative viability (nuclei count vs DMSO), 5 days (fraction); higher = more cells survive
Masitinib + AZD7762 = compound: Cc1ccc(NC(=O)c2ccc(CN3CCN(C)CC3)cc2)cc1Nc1nc(-c2cccnc2)cs1 [Masitinib] + NC(=O)Nc1cc(-c2cccc(F)c2)sc1C(=O)N[C@H]1CCCNC1 [AZD7762] (partner 0.2 µM)
In short: (§1)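 Cells from lung cancer lines were seeded into 1536-well plates and, one day later, dosed by pin tool. Treatments were either a single drug or a fixed dose of an anchor drug with five library-drug doses (not always all listed) in √10 steps. After 5 days, nuclei were stained in a one-step fixation (final 0.05% Triton X-100, 1% formaldehyde, 1 ug/ml Hoechst) and counted on 4× images, and relative viability is the treated-to-vehicle nuclei ratio, as the median of duplicate plates.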

[1] = compound: CC1=CC(=CC=C1)NC2=NC(=CS2)C3=CC=NC=C3 + CS(=O)(=O)N1CCN(Cc2cc3nc(-c4cccc5[nH]ncc45)nc(N4CCOCC4)c3s2)CC1 [Pictilisib] (partner 1 µM)
In short: as §1

[2] = compound: CC1=CC(=CC=C1)NC2=NC(=CS2)C3=CC=NC=C3 + Nc1ncn([C@H]2C[C@H](O)[C@@H](CO)O2)c(=O)n1 [Decitabine] (partner 2 µM)
In short: as §1

Masitinib + Trametinib = compound: Cc1ccc(NC(=O)c2ccc(CN3CCN(C)CC3)cc2)cc1Nc1nc(-c2cccnc2)cs1 [Masitinib] + CC(=O)Nc1cccc(-n2c(=O)n(C3CC3)c(=O)c3c(Nc4ccc(I)cc4F)n(C)c(=O)c(C)c32)c1 [Trametinib] (partner 0.02 µM)
In short: as §1

Cell Line	relative viability (Masitinib + AZD7762; first compound 0.01 µM)	relative viability (Masitinib + AZD7762; first compound 0.03162 µM)	relative viability (Masitinib + AZD7762; first compound 0.1 µM)	relative viability (Masitinib + AZD7762; first compound 0.3162 µM)	relative viability (Masitinib + AZD7762; first compound 1 µM)	relative viability ([1]; first compound 0.08 µM)	relative viability ([1]; first compound 0.253 µM)	relative viability ([1]; first compound 0.8 µM)	relative viability ([1]; first compound 8 µM)	relative viability ([2]; first compound 0.08 µM)	relative viability ([2]; first compound 0.253 µM)	relative viability ([2]; first compound 0.8 µM)	relative viability ([2]; first compound 2.53 µM)	relative viability ([2]; first compound 8 µM)	relative viability (Masitinib + Trametinib; first compound 0.01 µM)	relative viability (Masitinib + Trametinib; first compound 0.03162 µM)	relative viability (Masitinib + Trametinib; first compound 0.1 µM)	relative viability (Masitinib + Trametinib; first compound 0.3162 µM)	relative viability (Masitinib + Trametinib; first compound 1 µM)	relative viability ([1]; first compound 2.53 µM)
LK-2	0.4	0.346	0.692	0.525	0.302	0.572	0.569	0.853	0.674	0.298	0.273	0.304	0.204	0.563	0.743	0.783	0.828	0.728	0.748	
LOU-NH91	0.748	0.628	0.799	0.642	0.548	0.482	0.382	0.464	0.468	0.744	0.797	0.728	0.825	0.78	0.756	0.765	0.792	0.732	0.772	0.44
LU99A	0.462	0.293	0.312	0.319	0.273		0.309	0.306	0.326	0.889	0.939	0.787	0.709	0.879	0.619	0.597	0.624	0.559	0.503	0.368
LXF-289	0.996	1.18	1.18	1.14	1.02	0.714	0.75	0.733	0.74	0.353	0.383	0.391	0.375	0.363	0.638	0.707	0.674	0.747	0.699	0.715
NCI-H23	0.21	0.273	0.277	0.237	0.198	0.33	0.482	0.555	0.462	0.327	0.274	0.32	0.299	0.32	0.305	0.368	0.469	0.375	0.354	0.434
NCI-H322M	0.435	0.533	0.423	0.515	0.534	0.446	0.452	0.372	0.622	0.736	0.703	0.67	0.706	0.691	0.576	0.465	0.519	0.637	0.566	0.495
NCI-H358	0.524	0.491	0.548	0.509	0.414	0.289	0.345	0.307	0.38	0.233	0.22	0.208	0.249	0.225	0.148	0.13	0.135	0.121	0.122	0.381
NCI-H441	1.23	1.2	1.28	1.35	1.28	0.44	0.529	0.476	0.543	0.266	0.263	0.302	0.226	0.243	0.5	0.488	0.547	0.336	0.397	0.489
NCI-H460	0.62	0.605	0.655	0.357	0.525	0.311	0.257	0.337	0.336	0.445	0.432	0.464	0.405	0.402	0.13	0.121	0.139	0.13	0.13	0.354
NCI-H596	1.24	0.978	1.07	1.1	0.973	0.347	0.378	0.34	0.264	0.923	1.02	0.836	0.899	0.91	0.723	0.691	0.789	0.678	0.732	0.402
NCI-H647	0.587	0.477	0.535	0.502	0.469		0.289	0.388	0.231	0.3	0.437	0.443	0.365	0.436	0.45	0.381	0.435	0.364	0.411	0.317
NCI-H650	1.07	1.02	1.23	1.15	0.946	0.771	0.863	0.893	0.822	0.331	0.3	0.336	0.386	0.334	1.05	1.1	1.03	1.28	0.99	
NCI-H727	0.592	0.626	0.566	0.495	0.606	0.26	0.287	0.313	0.375	0.88		0.864		0.836	0.333	0.375	0.417	0.366	0.334	0.343
NCI-H838	0.818	0.883	0.913	0.845	0.892	0.382	0.334	0.4	0.289	0.458	0.473	0.501	0.448	0.457	0.375	0.425	0.458	0.451	0.488	0.288
NCI-H1355	0.726	0.747	0.791	0.481	0.517	0.268	0.315	0.348	0.327	0.347	0.311	0.351	0.318	0.356	0.439	0.35	0.497	0.329	0.468	0.292
NCI-H1395	0.379	0.416	0.392	0.405	0.378	0.569	0.602	0.531	0.697	0.666		0.685	0.677	0.761	1.01	1.03	1.04	1.11	0.973	0.627
NCI-H1437	1.09	1.12	1.22	1.07	1.06	0.53	0.613	0.689	0.285	0.593	0.521	0.742	0.384	0.48	0.511	0.507	0.52	0.494	0.449	0.294

Cell Line	relative viability (Masitinib + AZD7762; first compound 0.01 µM)	relative viability (Masitinib + AZD7762; first compound 0.03162 µM)	relative viability (Masitinib + AZD7762; first compound 0.1 µM)	relative viability (Masitinib + AZD7762; first compound 0.3162 µM)	relative viability (Masitinib + AZD7762; first compound 1 µM)	relative viability ([1]; first compound 0.08 µM)	relative viability ([1]; first compound 0.253 µM)	relative viability ([1]; first compound 0.8 µM)	relative viability ([1]; first compound 8 µM)	relative viability ([2]; first compound 0.08 µM)	relative viability ([2]; first compound 0.253 µM)	relative viability ([2]; first compound 0.8 µM)	relative viability ([2]; first compound 2.53 µM)	relative viability ([2]; first compound 8 µM)	relative viability (Masitinib + Trametinib; first compound 0.01 µM)	relative viability (Masitinib + Trametinib; first compound 0.03162 µM)	relative viability (Masitinib + Trametinib; first compound 0.1 µM)	relative viability (Masitinib + Trametinib; first compound 0.3162 µM)	relative viability (Masitinib + Trametinib; first compound 1 µM)	relative viability ([1]; first compound 2.53 µM)
NCI-H1651	0.49	0.523	0.485	0.475	0.471	0.476	0.651	0.749	0.588	0.558	0.55	0.66	0.475	0.628	0.776	0.792	0.836	0.901	0.856	0.465
NCI-H1666	0.763	0.743	0.806	0.527	0.816	0.326	0.358	0.351	0.3	0.682	0.691	0.67	0.472	0.636	0.807	0.893	0.873	0.565	0.788	0.329
NCI-H1734	0.595	0.515	0.599	0.599	0.545	0.479	0.499	0.494	0.43	0.446	0.417	0.457	0.507	0.463	0.682	0.661	0.759	0.696	0.663	0.588
NCI-H1755	0.404	0.452	0.468	0.45	0.479	0.339	0.401	0.338	0.367	0.654	0.702	0.701	0.617	0.604	0.633	0.83	0.788	0.766	0.699	0.344
NCI-H1792	0.733	0.502	0.611	0.39	0.547	0.155	0.198	0.219	0.24	0.479	0.384	0.481	0.548	0.449	0.427	0.307	0.37	0.503	0.498	0.162
NCI-H1793	0.473	0.348	0.434	0.283	0.202		0.326	0.357	0.264	0.513	0.481	0.489	0.472	0.238	0.54	0.388	0.407	0.555	0.346	0.22
NCI-H1915		0.734		0.747	0.718	0.834	0.853	0.888	0.92	0.244	0.277	0.262	0.276	0.261		0.635		0.302	0.302	0.759
NCI-H1944		0.445		0.485	0.431	0.29	0.309	0.327	0.297	0.367	0.426	0.399	0.361	0.389		0.457		0.349	0.368	0.304
NCI-H1975	0.707	0.665	0.884	0.434	0.546	0.229	0.216	0.188	0.191	0.326	0.336	0.381	0.356	0.245	0.302	0.364	0.374	0.237	0.323	0.199
NCI-H1993	0.786	0.625	0.753	0.745	0.684	0.804	0.907	0.788	0.779	0.565	0.561	0.483	0.485	0.502	0.483	0.437	0.578	0.508	0.538	0.822
NCI-H2085	0.872	0.915	0.819	0.893	0.886	0.5	0.434	0.453	0.447	0.479	0.532	0.504	0.452	0.457	0.583	0.534	0.556	0.514	0.524	0.426
NCI-H2087	1.22	1.35	1.2	1.5	1.3	0.616	0.812	0.851	0.77	0.264	0.293	0.281	0.263	0.238	0.176	0.213	0.214	0.153	0.178	0.885
NCI-H2126	0.884	1.07	0.97	0.973	1.11	0.416	0.443	0.449	0.436	0.525	0.56	0.559	0.572	0.578	0.523	0.54	0.562	0.507	0.534	0.425
NCI-H2170	0.714	0.887	1.01	0.828	0.685	0.296	0.287	0.301	0.276	0.426	0.399	0.437	0.43	0.361	1.08	0.76	1.01	0.984	0.98	0.271
NCI-H2347	0.853	0.733	0.675	0.647	0.73	0.583	0.685	0.434	0.578	0.622	0.596	0.53	0.602	0.591	0.26	0.262	0.291	0.293	0.288	0.665
NCI-H2405	0.741	0.778	0.738	0.692	0.634	0.315	0.433	0.332	0.342	0.694	0.678	0.686		0.671	0.651	0.605	0.705	0.576	0.594	0.523
